Measured values reported in patent publication US20240216352A1 (priority 2022, published 2024).

Tested on: healthy participants
Assay: Phase 1 Part A single ascending dose (SAD) and FE/pH cohort: safety, blood pressure
Format: in vivo, human
Conditions: for Mean SBP: in mmHg (unit assumed); for Maximum of mean (±SD) reduction in DBP from baseline / Maximum of mean (±SD) reduction in SBP from baseline / Time of maximum mean DBP reduction / Time of maximum mean SBP reduction: within 12 h post dose
Procedure: The study was performed in 3 parts in 112 healthy male and female participants, including 24 Japanese participants. Female participants were to be not of childbearing potential. The present study was designed to evaluate the safety and tolerability, PK, and exploratory PD of an oral suspension of Compound A. Parts A and B (Cohort B1 only) enrolled healthy participants and was conducted at a site in The Netherlands and Part B (Cohort B2 to B5) enrolled healthy non-Japanese participants and was conducted at a site in the United Kingdom (UK). Part C enrolled healthy Japanese participants and was conducted at the same site in the UK.
Part A was an SAD study in a planned number of 6 sequential dose escalation cohorts (3, 10, 30, 100, 150, or 250 mg) of 8 healthy participants (6 active+2 placebo) each, under fasted conditions. Eligible participants in Part A (excluding those in Cohort A7 [food effect (FE)/pH cohort]) received a single administration of study drug (Compound A or placebo) under fasted conditions. In Cohort A1 to Cohort A6, sentinel dosing was employed (1 active+1 placebo, followed after 48 hours by the remaining participants of the cohort [5 active+1 placebo]). […] In addition to the 6 ascending dose cohorts, a cohort of 6 healthy participants (Cohort A7; 6 active, 100 mg Compound A) was included to assess the effect of food and pH on the bioavailability of Compound A in a 3-period, open-label, fixed-sequence, crossover design (FE/pH cohort).
Physical examinations, vital sign measurements (including orthostasis testing in Cohort A6, Cohort B3 to B5, and C1 to C3 at selected time points), 12-lead electrocardiogram (ECG), and clinical laboratory evaluations were performed at selected times throughout the study. In addition, Holter monitoring was performed for the first 24 hours post dose on Day 1 in Part A (not in FE/pH cohort), and also for the first 24 hours post dose on Day 1 and Day 14 in Parts B and C. Participants were closely monitored for adverse events (AEs). Blood samples were collected for up to 14 days (follow-up visit) after (last) study drug administration for PK analysis. In addition, blood and urine were collected for exploratory biomarker assessments and for biobanking of samples for potential analyses. Urine was collected for potential PK analysis for up to 96 hours after a single dose of Compound A or placebo was administered in the SAD part, and for up to 24 hours after the first (morning) dose of study drug on Day 1 and for up to 24 hours after the last (morning) dose of study drug on Day 14 in the MAD parts.

[1] = 100 mg Fasted + Famotidine, D 1 2 h
[2] = 100 mg Fasted + Famotidine, D 1 4 h
[3] = 100 mg Fasted + Famotidine, D 1 8 h
[4] = 100 mg Fasted + Famotidine, D 2 24 h
[5] = 100 mg fasted + famotidine (A7)

SMILES: CCCN(C)C(=O)OCc1c(-c2ccc(O[C@H]3CCC[C@H](C(=O)O)C3)c(C)n2)nnn1C [Compound A, (1S,3S)-3-((2-methyl-6-(1-methyl-5-(((methyl(propyl)carbamoyl)-oxy)methyl)-1H-1,2,3-triazol-4-yl)pyridin-3-yl)oxy)cyclohexane-1-carboxylic acid]
- Mean DBP [1]: 67.2 mmHg
- Mean SBP [1]: 111.3
- Mean DBP [2]: 65.3 mmHg
- Mean SBP [2]: 106.5
- Mean DBP [3]: 63.2 mmHg
- Mean SBP [3]: 105.0
- Mean DBP [4]: 71.7 mmHg
- Mean SBP [4]: 118.7
- Mean DBP (100 mg Fasted, D 1 2 h): 67.2 mmHg
- Mean SBP (100 mg Fasted, D 1 2 h): 107.5
- Mean DBP (100 mg Fasted, D 1 4 h): 64.2 mmHg
- Mean SBP (100 mg Fasted, D 1 4 h): 103.8
- Mean DBP (100 mg Fasted, D 1 8 h): 63 mmHg
- Mean SBP (100 mg Fasted, D 1 8 h): 98.0
- Mean DBP (100 mg Fasted, D 2 24 h): 69.3 mmHg
- Mean SBP (100 mg Fasted, D 2 24 h): 115.2
- Mean DBP (100 mg Fed, D 1 2 h): 57.2 mmHg
- Mean SBP (100 mg Fed, D 1 2 h): 100.5
- Mean DBP (100 mg Fed, D 1 4 h): 58.2 mmHg
- Mean SBP (100 mg Fed, D 1 4 h): 104.2
- Mean DBP (100 mg Fed, D 1 8 h): 58.8 mmHg
- Mean SBP (100 mg Fed, D 1 8 h): 100.3
- Mean DBP (100 mg Fed, D 2 24 h): 69.3 mmHg
- Mean SBP (100 mg Fed, D 2 24 h): 112.8
- Maximum of mean (±SD) reduction in DBP from baseline (100 mg fasted (A7)): 12.5 ± 7.06 mmHg
- Maximum of mean (±SD) reduction in SBP from baseline (100 mg fasted (A7)): 25.8 ± 9.54 mmHg
- Time of maximum mean DBP reduction (100 mg fasted (A7)): 5 h
- Time of maximum mean SBP reduction (100 mg fasted (A7)): 8 h
- Maximum of mean (±SD) reduction in DBP from baseline [5]: 11.8 ± 8.40 mmHg
- Maximum of mean (±SD) reduction in SBP from baseline [5]: 19.3 ± 17.41 mmHg
- Time of maximum mean DBP reduction [5]: 6 h
- Time of maximum mean SBP reduction [5]: 6 h
- Maximum of mean (±SD) reduction in DBP from baseline (100 mg fed (A7)): 12.7 ± 4.18 mmHg
- Maximum of mean (±SD) reduction in SBP from baseline (100 mg fed (A7)): 18.5 ± 12.94 mmHg
- Time of maximum mean DBP reduction (100 mg fed (A7)): 5 h
- Time of maximum mean SBP reduction (100 mg fed (A7)): 6 h
- Dose-limiting events (Cohort A6, 250 mg single dose, 2 sentinel participants dosed): dose-limiting events observed in a sentinel participant
- Maximum of mean (±SD) reduction in SBP from baseline (SAD 3 mg (A1)): 5.2 ± 3.43 mmHg
- Time of maximum mean SBP reduction (SAD 3 mg (A1)): 2 h
- Mean DBP (SAD 3 mg, D 1 2 h): 68.3 mmHg
- Mean SBP (SAD 3 mg, D 1 2 h): 119.5
- Mean DBP (SAD 3 mg, D 1 4 h): 69.5 mmHg
- Mean SBP (SAD 3 mg, D 1 4 h): 120.3
- Mean DBP (SAD 3 mg, D 1 8 h): 68 mmHg
- Mean SBP (SAD 3 mg, D 1 8 h): 124.5
- Mean DBP (SAD 3 mg, D 2 24 h): 68.7 mmHg
- Mean SBP (SAD 3 mg, D 2 24 h): 118.8
- Maximum of mean (±SD) reduction in DBP from baseline (SAD 10 mg (A2)): 8.8 ± 9.91 mmHg
- Maximum of mean (±SD) reduction in SBP from baseline (SAD 10 mg (A2)): 9.5 ± 16.13 mmHg
- Time of maximum mean DBP reduction (SAD 10 mg (A2)): 6 h
- Time of maximum mean SBP reduction (SAD 10 mg (A2)): 8 h
- Mean DBP (SAD 10 mg, D 1 2 h): 67.7 mmHg
- Mean SBP (SAD 10 mg, D 1 2 h): 112.2
- Mean DBP (SAD 10 mg, D 1 4 h): 68.7 mmHg
- Mean SBP (SAD 10 mg, D 1 4 h): 110.2
- Mean DBP (SAD 10 mg, D 1 8 h): 63 mmHg
- Mean SBP (SAD 10 mg, D 1 8 h): 109.5
- Mean DBP (SAD 10 mg, D 2 24 h): 71.7 mmHg
- Mean SBP (SAD 10 mg, D 2 24 h): 118.5
- Maximum of mean (±SD) reduction in DBP from baseline (SAD 30 mg (A3)): 6.8 ± 1.72 mmHg
- Maximum of mean (±SD) reduction in SBP from baseline (SAD 30 mg (A3)): 11.7 ± 7.61 mmHg
- Time of maximum mean DBP reduction (SAD 30 mg (A3)): 5 h
- Time of maximum mean SBP reduction (SAD 30 mg (A3)): 4 h
- Mean DBP (SAD 30 mg, D 1 2 h): 66.2 mmHg
- Mean SBP (SAD 30 mg, D 1 2 h): 107.5
- Mean DBP (SAD 30 mg, D 1 4 h): 65.2 mmHg
- Mean SBP (SAD 30 mg, D 1 4 h): 106.0
- Mean DBP (SAD 30 mg, D 1 8 h): 65.2 mmHg
- Mean SBP (SAD 30 mg, D 1 8 h): 113.8
- Mean DBP (SAD 30 mg, D 2 24 h): 71 mmHg
- Mean SBP (SAD 30 mg, D 2 24 h): 120.2
- Maximum of mean (±SD) reduction in DBP from baseline (SAD 100 mg (A4)): 9.7 ± 8.64 mmHg
- Maximum of mean (±SD) reduction in SBP from baseline (SAD 100 mg (A4)): 15.5 ± 11.59 mmHg
- Time of maximum mean DBP reduction (SAD 100 mg (A4)): 5 h
- Time of maximum mean SBP reduction (SAD 100 mg (A4)): 2 h
- Mean DBP (SAD 100 mg, D 1 2 h): 59 mmHg
- Mean SBP (SAD 100 mg, D 1 2 h): 101.0
- Mean DBP (SAD 100 mg, D 1 4 h): 58.7 mmHg
- Mean SBP (SAD 100 mg, D 1 4 h): 101.3
- Mean DBP (SAD 100 mg, D 1 8 h): 56.3 mmHg
- Mean SBP (SAD 100 mg, D 1 8 h): 105.0
- Mean DBP (SAD 100 mg, D 2 24 h): 66 mmHg
- Mean SBP (SAD 100 mg, D 2 24 h): 114.2
- Maximum of mean (±SD) reduction in DBP from baseline (SAD 150 mg (A5)): 12.7 ± 5.61 mmHg
- Maximum of mean (±SD) reduction in SBP from baseline (SAD 150 mg (A5)): 16.5 ± 8.41 mmHg
- Time of maximum mean DBP reduction (SAD 150 mg (A5)): 6 h
- Time of maximum mean SBP reduction (SAD 150 mg (A5)): 6 h
- Mean DBP (SAD 150 mg, D 1 2 h): 58.2 mmHg
- Mean SBP (SAD 150 mg, D 1 2 h): 105.0
- Mean DBP (SAD 150 mg, D 1 4 h): 56 mmHg
- Mean SBP (SAD 150 mg, D 1 4 h): 101.5
- Mean DBP (SAD 150 mg, D 1 8 h): 57.8 mmHg
- Mean SBP (SAD 150 mg, D 1 8 h): 107.2
- Mean DBP (SAD 150 mg, D 2 24 h): 66.2 mmHg
- Mean SBP (SAD 150 mg, D 2 24 h): 114.7
- Effect on SBP, DBP and heart rate (SAD cohorts): decreased SBP and DBP dose dependently, reversibly, and mostly asymptomatically with minimal effect on heart rate
- Safety and tolerability (single and multiple dose oral administration to healthy participants): generally safe and well tolerated
